According to patent US4761414A, “Substituted 1H-pyrimido[1,2-a-]-pyrido[3,4-e]pyrazine 6 oxides” (G. D. Searle & Co., priority 1986, dated 1988):
In brackets after ≈: the same amount, converted by molar mass. Read-outs that look alike come from different tables or passages of the source.

How the values were obtained:
B. fragilis NCTC 9344 = assay: MIC/MBC against Bacteroides fragilis strain C; type: cell-based; conditions: for MBC: NCTC9344, 99.9% reduction in viable count; for MIC: NCTC9344, 48 h, 48 hours, 37° C., anaerobic
Experimental: (§1) The screening panel utilized in this Example consisted of 5 strains of Bacteroides fragilis. All assays were carried out in 96-well microtitre plates. If an isolate was obtained from either a culture collection or clinical source, the isolate was immediately inoculated into Wilkens-Chalgren broth (Oxoid) and incubated at 37° C. in an anaerobic chamber in an atmosphere of 85% nitrogen, 10% carbon dioxide, and 5% hydrogen for 48 hours. At the end of this time, the viable count was about 10^12 organisms/ml broth. A 1 ml aliquot of each culture was placed in an ampoule and quick frozen in acetone-dry ice mixture and stored in liquid nitrogen. When an inoculum was utilized in an assay, one of the ampoules was thawed and diluted with fresh broth to yield a suspension having a count of 5×10^5 organisms/ml. A 100 μl aliquot of this suspension was inoculated into each well of the microtitre plate. A 2 mg sample of the test compound was dissolved in 0.2 ml of a suitable solvent such as dimethylsulfoxide, polyethylene glycol 200 or methanol. […] After addition of the test solution the final inoculum level was 10^5 cells/ml. The plates were incubated for 48 hours at 37° C. in the anaerobic chamber. The Minimum Inhibitory Concentration (MIC) was read visually. The MIC is defined as the lowest concentration at which there is no detectable growth. The Minimum Bactericidal Concentration (MBC) was determined by taking 50 μl aliquot from each well and placing it in fresh medium. […] The strains of Bacteroides fragilis utilized in the above procedure are identified by letter in accordance with the following legend: |C B. fragilis NCTC 9344

[1] = system: B. fragilis MZ-R ATCC 11295; assay: MIC/MBC against Bacteroides fragilis strain D; type: cell-based; conditions: for MBC: ATCC11295, 99.9% reduction in viable count; for MIC: ATCC11295, 48 h, 48 hours, 37° C., anaerobic
Experimental: The screening panel utilized in this Example consisted of 5 strains of Bacteroides fragilis. All assays were carried out in 96-well microtitre plates. If an isolate was obtained from either a culture collection or clinical source, the isolate was immediately inoculated into Wilkens-Chalgren broth (Oxoid) and incubated at 37° C. in an anaerobic chamber in an atmosphere of 85% nitrogen, 10% carbon dioxide, and 5% hydrogen for 48 hours. At the end of this time, the viable count was about 10^12 organisms/ml broth. A 1 ml aliquot of each culture was placed in an ampoule and quick frozen in acetone-dry ice mixture and stored in liquid nitrogen. When an inoculum was utilized in an assay, one of the ampoules was thawed and diluted with fresh broth to yield a suspension having a count of 5×10^5 organisms/ml. A 100 μl aliquot of this suspension was inoculated into each well of the microtitre plate. A 2 mg sample of the test compound was dissolved in 0.2 ml of a suitable solvent such as dimethylsulfoxide, polyethylene glycol 200 or methanol. […] After addition of the test solution the final inoculum level was 10^5 cells/ml. The plates were incubated for 48 hours at 37° C. in the anaerobic chamber. The Minimum Inhibitory Concentration (MIC) was read visually. The MIC is defined as the lowest concentration at which there is no detectable growth. The Minimum Bactericidal Concentration (MBC) was determined by taking 50 μl aliquot from each well and placing it in fresh medium.

B. fragilis WS-1 = assay: MIC/MBC against Bacteroides fragilis strain E; type: cell-based; conditions: for MBC: WS1, 99.9% reduction in viable count; for MIC: WS1, 48 h, 48 hours, 37° C., anaerobic
Experimental: as §1, with “|E” for “|C”, “WS-1*” for “NCTC 9344”

[2] = system: Clostridium perfringens NCTC 523; assay: microbe, parasite or virus in culture; type: cell-based; conditions: Clostridium perfringens, NCTC523, Clostridium perfringens NCTC 523; procedures of Example 40
[3] = system: Costridium difficile NCIB 10666; assay: MIC vs panel of anaerobes; type: cell-based, C. difficile; conditions: Clostridioides difficile, NCIB10666, C. difficile NCIB 10666; procedures of Example 40; read-out: MIC
[4] = system: Campylobacter fetus ss. jejuni NCTC 10842; assay: MIC vs panel of anaerobes; type: cell-based; conditions: NCTC10842, procedures of Example 40
[5] = system: Fusobacterium necrophorum ATCC 11295; assay: MIC vs panel of anaerobes; type: cell-based; conditions: Fusobacterium necrophorum, ATCC11295, Fusobacterium necrophorum ATCC 11295; procedures of Example 40; read-out: MIC
[6] = system: Propionebacterium acnes NCTC 737; assay: MIC vs panel of anaerobes; type: cell-based; conditions: procedures of Example 40
B. fragilis 23745 = conditions: Bacteroides fragilis, 23745, in Mus musculus, po, 48 h, log CFU/ml liver homogenate, test compound
[7] = read-out: DOSE GIVING 1 LOG REDUCTION (molar), p.o., after infection and twice daily for 2 days
[8] = read-out: DOSE GIVING 1 LOG REDUCTION, p.o., after infection and twice daily for 2 days

Row | SMILES | MBC (B. fragilis NCTC 9344) [µg/mL] | MIC (B. fragilis NCTC 9344) [µg/mL] | MBC [1] [µg/mL] | MIC [1] [µg/mL] | MBC (B. fragilis WS-1) [µg/mL] | MIC (B. fragilis WS-1) [µg/mL] | MIC [2] [µg/mL] | MIC [3] [µg/mL] | MIC [4] [µg/mL] | MIC [5] [µg/mL] | MIC [6] [µg/mL] | ED (1 log reduction) (B. fragilis 23745; [7]) [µmol/kg] | ED (1 log reduction) (B. fragilis 23745; [8]) [mg/kg]
1 | CC1(C)CN=C2C(c3ccc(Cl)cc3)=[N+]([O-])c3cnccc3N2C1 [Example 17, 2,3-Dihydro-5-(4-chlorophenyl)-2,2-dimethyl-1H-pyrimido[1,2-a]pyrido[3,4-e]pyrazine 6-oxide] | < 0.8 | < 0.8 | < 0.8 | < 0.8 | < 0.8 | < 0.8 | < 0.8 | < 0.8 | 50 (≈ 147 µM) | 3.1 (≈ 9.1 µM) | > 100 | 9.3 | 3.2
2 | [O-][N+]1=C(c2ccccc2)C2=NCC3(CCCCC3)CN2c2ncccc21 [Example 29, Spiro[cyclohexane-1,2'-[2,3]-dihydro-[5]-phenyl-[1H]pyrimido[1,2-a]pyrido[3,2-e]pyrazine [6]-oxide]] | < 0.8 | < 0.8 | < 0.8 | < 0.8 | < 0.8 | < 0.8 | 1.5 (≈ 4.33 µM) | < 0.8 | 100 (≈ 289 µM) | 6.2 (≈ 17.9 µM) | > 100 | 10.1 | 3.5
3 | CCC1(C)CN=C2C(c3ccccc3)=[N+]([O-])c3cnccc3N2C1 (stereo not drawn) [Example 23, 2,3-Dihydro-2-ethyl-2-methyl-5-phenyl-1H-pyrimido[1,2-a]pyrido[3,4-e]pyrazine 6-oxide] | < 0.8 | < 0.8 | < 0.8 | < 0.8 | 3.1 (≈ 9.68 µM) | 1.5 (≈ 4.68 µM) | 1.5 (≈ 4.68 µM) | 1.5 (≈ 4.68 µM) | 100 (≈ 312 µM) | < 0.8 | > 100 | 6 | 1.9
4 | CCC1(CC)CN=C2C(c3ccccc3)=[N+]([O-])c3cnccc3N2C1 [Example 25, 2,3-Dihydro-2,2-diethyl-5-phenyl-1H-pyrimido[1,2-a]pyrido[3,4-e]pyrazine 6-oxide] | 1.5 (≈ 4.49 µM) | 1.5 (≈ 4.49 µM) | 1.5 (≈ 4.49 µM) | 1.5 (≈ 4.49 µM) | < 0.8 | < 0.8 | 3.1 (≈ 9.27 µM) | 1.5 (≈ 4.49 µM) | 6.2 (≈ 18.5 µM) | 31 (≈ 92.7 µM) | > 100 | 5.75 | 1.9
5 | CCC1(CC)CN=C2C(c3ccccc3)=[N+]([O-])c3cccnc3N2C1 [Example 26, 2,3-Dihydro-2,2-diethyl-5-phenyl-1H-pyrimido[1,2-a]pyrido[3,2-e]pyrazine 6-oxide] | < 0.8 | < 0.8 | < 0.8 | < 0.8 | < 0.8 | < 0.8 | 1.5 (≈ 4.49 µM) | < 0.8 | 25 (≈ 74.8 µM) | 1.5 (≈ 4.49 µM) | 100 (≈ 299 µM) | 10.1 | 3.4
6 | CCC1(C)CN=C2C(c3ccccc3)=[N+]([O-])c3cccnc3N2C1 (stereo not drawn) [Example 24, 2,3-Dihydro-2-ethyl-2-methyl-5-phenyl-1H-pyrimido[1,2-a]pyrido[3,2-e]pyrazine 6-oxide] | < 0.8 | < 0.8 | < 0.8 | < 0.8 | < 0.8 | < 0.8 | 1.5 (≈ 4.68 µM) | < 0.8 | 100 (≈ 312 µM) | < 0.8 | 100 (≈ 312 µM) | 6.8 | 2.2
7 | CC1(C)CN=C2C(c3ccc(F)cc3)=[N+]([O-])c3cccnc3N2C1 [Example 31, 2,3-Dihydro-2,2-dimethyl-5-(4-fluorophenyl)-1H-pyrimido[1,2-a]pyrido[3,2-e]pyrazine 6-oxide] | < 0.8 | < 0.8 | < 0.8 | < 0.8 | < 0.8 | < 0.8 | 3.1 (≈ 9.56 µM) | < 0.8 | 50 (≈ 154 µM) | 3.1 (≈ 9.56 µM) | > 100 | 3 | 1
8 | Cc1ccc(C2=[N+]([O-])c3cccnc3N3CC(C)(C)CN=C23)cc1 [Example 20, 2,3-Dihydro-2,2-dimethyl-5-(4-methylphenyl)-1H-pyrimido[1,2-a]pyrido[3,2-e]pyrazine 6-oxide] | 1.5 (≈ 4.68 µM) | 1.5 (≈ 4.68 µM) | < 0.8 | < 0.8 | < 0.8 | 1.5 (≈ 4.68 µM) | 1.5 (≈ 4.68 µM) | < 0.8 | 6.2 (≈ 19.4 µM) | 1.5 (≈ 4.68 µM) | > 100 | 13 | 4.2
9 | COc1ccc(C2=[N+]([O-])c3cccnc3N3CC(C)(C)CN=C23)cc1OC [Example 22, 2,3-Dihydro-5-(3,4-dimethoxyphenyl)-2,2-dimethyl-1H-pyrimido[1,2-a]pyrido[3,2-e]pyrazine 6-oxide] | < 0.8 | < 0.8 | < 0.8 | < 0.8 | < 0.8 | < 0.8 | < 0.8 | < 0.8 | 50 (≈ 136 µM) | < 0.8 | > 100 | 7.3 | 2.7
